ChEMBL document CHEMBL4393680, “Design, synthesis and biological evaluation of novel thioquinazolinone-based 2-aminobenzamide derivatives as potent histone deacetylase (HDAC) inhibitors” (Eur J Med Chem, 2019)
pIC50: −log10 of the molar value.

Tests used:
A549 [1] = assay: Antiproliferative activity against human A549 cells assessed as reduction in cell growth at 8 uM incubated for 72 hrs by CCK-8 assay relative to control; type: functional; conditions: A549, 72 h
HCT-116 [2] = assay: Antiproliferative activity against human HCT116 cells assessed as reduction in cell growth at 2 uM incubated for 72 hrs by CCK-8 assay relative to control; type: functional; conditions: HCT-116, 72 h
A-375 [3] = assay: Antiproliferative activity against human A375 cells assessed as reduction in cell growth at 2 uM incubated for 72 hrs by CCK-8 assay relative to control; type: functional; conditions: A-375, 72 h
HeLa [4] = assay: Antiproliferative activity against human HeLa cells assessed as reduction in cell growth at 8 uM incubated for 72 hrs by CCK-8 assay relative to control; type: functional
SMMC-7721 [5] = assay: Antiproliferative activity against human SMMC7721 cells assessed as reduction in cell growth at 8 uM incubated for 72 hrs by CCK-8 assay relative to control; type: functional; conditions: SMMC-7721, 72 h
A-375 [6] = assay: Antiproliferative activity against human A375 cells assessed as reduction in cell growth at 8 uM incubated for 72 hrs by CCK-8 assay relative to control; type: functional; conditions: A-375, 72 h
A549 [7] = assay: Antiproliferative activity against human A549 cells assessed as reduction in cell growth at 2 uM incubated for 72 hrs by CCK-8 assay relative to control; type: functional; conditions: A549, 72 h
HeLa [8] = assay: Antiproliferative activity against human HeLa cells assessed as reduction in cell growth at 2 uM incubated for 72 hrs by CCK-8 assay relative to control; type: functional
HCT-116 [9] = assay: Antiproliferative activity against human HCT116 cells assessed as reduction in cell growth at 8 uM incubated for 72 hrs by CCK-8 assay relative to control; type: functional; conditions: HCT-116, 72 h
SMMC-7721 [10] = assay: Antiproliferative activity against human SMMC7721 cells assessed as reduction in cell growth at 2 uM incubated for 72 hrs by CCK-8 assay relative to control; type: functional; conditions: SMMC-7721, 72 h
HCT-116 [11] = assay: Antiproliferative activity against human HCT116 cells assessed as reduction in cell growth incubated for 72 hrs by CCK-8 assay; type: functional, cell-based; conditions: HCT-116, 72 h
SMMC-7721 [12] = assay: Antiproliferative activity against human SMMC7721 cells assessed as reduction in cell growth incubated for 72 hrs by CCK-8 assay; type: functional, cell-based; conditions: SMMC-7721, 72 h

| SMILES | pIC50 (HCT-116 [11]) | pIC50 (SMMC-7721 [12]) | inhibition at 8 µM (A549 [1]) [%] | inhibition at 2 µM (HCT-116 [2]) [%] | inhibition at 2 µM (A-375 [3]) [%] | inhibition at 8 µM (HeLa [4]) [%] | inhibition at 8 µM (SMMC-7721 [5]) [%] | inhibition at 8 µM (A-375 [6]) [%] | inhibition at 2 µM (A549 [7]) [%] | inhibition at 2 µM (HeLa [8]) [%] | inhibition at 8 µM (HCT-116 [9]) [%] | inhibition at 2 µM (SMMC-7721 [10]) [%] |
| --- | --- | --- | --- | --- | --- | --- | --- | --- | --- | --- | --- | --- |
| COc1ccc2c(=O)n(C)c(SCc3ccc(/C=C/C(=O)Nc4ccccc4N)cc3)nc2c1 |  |  | 56.6 | 9.4 | 2.5 | 30.2 | 15.4 | 10.4 | 54.3 | 20.7 | 12.2 | 3.6 |
| Cc1ccc2nc(SCc3ccc(/C=C/C(=O)Nc4ccccc4N)cc3)n(C)c(=O)c2c1 |  |  | 38.7 | 7.2 | 9 | 55.3 | 57.6 | 22.8 | 26.7 | 25.5 | 18.6 | 34.1 |
| CCn1c(SCc2ccc(C(=O)Nc3ccccc3N)cc2)nc2cc(Br)ccc2c1=O | 5.36 |  | 45.4 | 24.8 | 19.8 | 41.3 | 36.8 | 40.7 | 20.4 | 30.4 | 68.5 | 22.9 |
| CCCCn1c(SCc2ccc(C(=O)Nc3ccccc3N)cc2)nc2cc(Br)ccc2c1=O |  |  | 39.7 | 14.1 | 8.5 | 34.7 | 26.4 | 37.7 | 28.1 | 21.3 | 51.9 | 18.2 |
| CCn1c(SCc2ccc(C(=O)Nc3ccccc3N)cc2)nc2cc(Cl)ccc2c1=O |  |  | 13.7 | 7.3 | 12.7 | 43.4 | 34.2 | 49.9 | 3.6 | 39.1 | 7.4 | 18.4 |
| CCCCn1c(SCc2ccc(C(=O)Nc3ccccc3N)cc2)nc2cc(F)ccc2c1=O | 5.44 |  | 46.5 | 22.8 | 18 | 30.9 | 41.6 | 43.1 | 41.1 | 30.9 | 78.2 | 9.1 |
| CCCCn1c(SCc2ccc(/C=C/C(=O)Nc3ccccc3N)cc2)nc2cc(F)ccc2c1=O |  |  | 13.5 | 12 | 1.9 | 26.2 | 29 | 15.8 | 4.6 | 11.6 | 33.2 | 10.2 |

Now from value to compound, other results behind:

| pIC50 (HCT-116 [11]) | pIC50 (SMMC-7721 [12]) | SMILES | inhibition at 8 µM (A549 [1]) [%] | inhibition at 2 µM (HCT-116 [2]) [%] | inhibition at 2 µM (A-375 [3]) [%] | inhibition at 8 µM (HeLa [4]) [%] | inhibition at 8 µM (SMMC-7721 [5]) [%] | inhibition at 8 µM (A-375 [6]) [%] | inhibition at 2 µM (A549 [7]) [%] | inhibition at 2 µM (HeLa [8]) [%] | inhibition at 8 µM (HCT-116 [9]) [%] | inhibition at 2 µM (SMMC-7721 [10]) [%] |
| --- | --- | --- | --- | --- | --- | --- | --- | --- | --- | --- | --- | --- |
| 5.24 |  | COc1ccc2c(=O)n(-c3cccc(Cl)c3)c(SCc3ccc(C(=O)Nc4ccccc4N)cc3)nc2c1 | 30 | 22 | 21.7 | 51.2 | 27 | 36 | 20.9 | 12.3 | 64 | 21.3 |
|  | 5.19 | Cc1ccc2c(=O)n(C)c(SCc3ccc(/C=C/C(=O)Nc4ccccc4N)cc3)nc2c1 | 41.4 | 2.3 | 29 | 27.7 | 63.6 | 36.1 | 20.3 | 22.1 | 32.2 | 20.2 |
|  | 5.31 | CCn1c(SCc2ccc(C(=O)Nc3cc(F)ccc3N)cc2)nc2cc(OC)ccc2c1=O | 36.4 | 50.3 | 17.1 | 41.6 | 61.4 | 38.8 | 12.3 | 6.9 | 67.8 | 36 |
|  | 6.16 | Cc1cccc2nc(SCc3ccc(C(=O)Nc4ccccc4N)cc3)n(C)c(=O)c12 | 41.8 | 29.1 | 35.6 | 58.3 | 68.5 | 36.9 | 34.7 | 43.8 | 68.5 | 59.2 |
